Assay results taken from publication PMC8445441, “Elucidating the mechanism by which synthetic helper peptides sensitize Pseudomonas aeruginosa to multiple antibiotics” (PLoS Pathogens, 2021).
Read-outs that look alike come from different tables or passages of the source. Blank lines part the entries; values can stand above or below the compound they belong to.

Tests used:
[1] = test system: P. aeruginosa AUMC-Pa-2; details: strain AUMC-Pa-2; antibiotic + D-11 (MICb/MICbc 64/4)
In short: (§1)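 CLSI broth dilution; MHB; ~1 × 10^6 CFU/mL suspension mixed equal volume with drug; 37 °C for 18 h; visual read; triplicate. Broth sometimes supplemented with PG, PE, PC, CL, LPS, MgCl2, CaCl2 or PAβN.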

[2] = test system: P. aeruginosa AUMC-Pa-1; details: strain AUMC-Pa-1; antibiotic + D-11 (MICb/MICbc 128/4)
In short: as §1

[3] = test system: P. aeruginosa AUMC-Pa-6; experiment: microbe, parasite or virus in culture; details: strain AUMC-Pa-6; for FICI: antibiotic + D-11 (MICb/MICbc 64/4); for MICa: MIC of the antibiotic: antibiotic alone; for MICa: MIC of the antibiotic / MICac: MIC of the antibiotic in the combination: unit not given; for MICac: MIC of the antibiotic in the combination: with D-11 at MICbc 4
In short: as §1

[4] = test system: P. aeruginosa AUMC-Pa-5; experiment: microbe, parasite or virus in culture; details: strain AUMC-Pa-5; for FICI: antibiotic + D-11 (MICb/MICbc 64/4); for MICa: MIC of the antibiotic: antibiotic alone; for MICa: MIC of the antibiotic / MICac: MIC of the antibiotic in the combination: unit not given; for MICac: MIC of the antibiotic in the combination: with D-11 at MICbc 4
In short: as §1

[5] = test system: P. aeruginosa AUMC-Pa-4; experiment: microbe, parasite or virus in culture; details: strain AUMC-Pa-4; for FICI: antibiotic + D-11 (MICb/MICbc 128/4); for MICa: MIC of the antibiotic: antibiotic alone; for MICa: MIC of the antibiotic / MICac: MIC of the antibiotic in the combination: unit not given; for MICac: MIC of the antibiotic in the combination: with D-11 at MICbc 4
In short: as §1

[6] = test system: P. aeruginosa PAO1; experiment: microbe, parasite or virus in culture; details: PAO1; for MIC: Pseudomonas aeruginosa, PAO1, 18 h, read-out: MICa: the MIC of antibiotics, S3 Table, antibiotic alone; for FICI / MICac: the MIC for the antibiotic in the combination: S3 Table
In short: as §1

[7] = test system: P. aeruginosa AUMC-Pa-3; experiment: microbe, parasite or virus in culture; details: strain AUMC-Pa-3; for FICI: antibiotic + D-11 (MICb/MICbc 128/4); for MICa: MIC of the antibiotic: antibiotic alone; for MICa: MIC of the antibiotic / MICac: MIC of the antibiotic in the combination: unit not given; for MICac: MIC of the antibiotic in the combination: with D-11 at MICbc 4
In short: as §1

[8] = test system: P. aeruginosa PA14; experiment: microbe, parasite or virus in culture; set-up: MICa: MIC of the antibiotic / MICac: MIC of the antibiotic in the combination: unit not given beside the values; details: strain PA14; for FICI: antibiotic + D-11 (MICb/MICbc 128/4); for MICa: MIC of the antibiotic: antibiotic alone; for MICa: MIC of the antibiotic / MICac: MIC of the antibiotic in the combination: unit not given; for MICac: MIC of the antibiotic in the combination: with D-11 at MICbc 4
In short: as §1

[9] = test system: P. aeruginosa ATCC27853; experiment: microbe, parasite or virus in culture; set-up: MICa: MIC of the antibiotic / MICac: MIC of the antibiotic in the combination: unit not given beside the values; details: strain ATCC27853; for FICI: antibiotic + D-11 (MICb/MICbc 32/4); for MICa: MIC of the antibiotic: antibiotic alone; for MICa: MIC of the antibiotic / MICac: MIC of the antibiotic in the combination: unit not given; for MICac: MIC of the antibiotic in the combination: with D-11 at MICbc 4
In short: as §1

[10] = test system: P. aeruginosa PAK; experiment: microbe, parasite or virus in culture; set-up: MICa: MIC of the antibiotic / MICac: MIC of the antibiotic in the combination: unit not given beside the values; details: strain PAK; for FICI: antibiotic + D-11 (MICb/MICbc 64/4); for MICa: MIC of the antibiotic: antibiotic alone; for MICa: MIC of the antibiotic / MICac: MIC of the antibiotic in the combination: unit not given; for MICac: MIC of the antibiotic in the combination: with D-11 at MICbc 4
In short: as §1

[11] = test system: P. aeruginosa NR-31041; experiment: microbe, parasite or virus in culture; set-up: MICa: MIC of the antibiotic / MICac: MIC of the antibiotic in the combination: unit not given beside the values; details: strain NR-31041; for FICI: antibiotic + D-11 (MICb/MICbc 64/4); for MICa: MIC of the antibiotic: antibiotic alone; for MICa: MIC of the antibiotic / MICac: MIC of the antibiotic in the combination: unit not given; for MICac: MIC of the antibiotic in the combination: with D-11 at MICbc 4
In short: as §1

[12] = test system: P. aeruginosa NR-31040; experiment: microbe, parasite or virus in culture; set-up: MICa: MIC of the antibiotic / MICac: MIC of the antibiotic in the combination: unit not given beside the values; details: for FICI: antibiotic + D-11 (MICb/MICbc 128/4); for MICac: MIC of the antibiotic in the combination: with D-11 at MICbc 4
In short: as §1

[13] = test system: P. aeruginosa HM-214; details: strain HM-214; antibiotic + D-11 (MICb/MICbc 128/4)
In short: as §1

[14] = test system: clinical P. aeruginosa isolates; experiment: microbe, parasite or virus in culture; details: Pseudomonas aeruginosa, 18 h, antibiotic alone
In short: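 MIC is the lowest drug concentration showing no visible growth after 18 h at 37 °C. Two-fold dilutions in MHB were combined with an equal volume of bacterial suspension (about 1 × 10^6 CFU/mL), following CLSI broth microdilution, in triplicate.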

[15] = strain NR-31040, unit not given
[16] = read-out: Antibiotic sensibility (MIC) of clinical P. aeruginosa isolate AUMC-Pa-1, strain AUMC-Pa-1
[17] = read-out: Antibiotic sensibility (MIC) of clinical P. aeruginosa isolate AUMC-Pa-2, strain AUMC-Pa-2
[18] = read-out: Antibiotic sensibility (MIC) of clinical P. aeruginosa isolate AUMC-Pa-3, strain AUMC-Pa-3
[19] = read-out: Antibiotic sensibility (MIC) of clinical P. aeruginosa isolate AUMC-Pa-4, strain AUMC-Pa-4
[20] = read-out: Antibiotic sensibility (MIC) of clinical P. aeruginosa isolate AUMC-Pa-5, strain AUMC-Pa-5
[21] = read-out: Antibiotic sensibility (MIC) of clinical P. aeruginosa isolate AUMC-Pa-6, strain AUMC-Pa-6
[22] = read-out: Antibiotic sensibility (MIC) of clinical P. aeruginosa isolate HM-214, strain HM-214
[23] = read-out: Antibiotic sensibility (MIC) of clinical P. aeruginosa isolate NR-31040, strain NR-31040
[24] = read-out: Antibiotic sensibility (MIC) of clinical P. aeruginosa isolate NR-31041, strain NR-31041

MICa: MIC of the antibiotic [3]: 16 | MICac: MIC of the antibiotic in the combination [3]: 4 | MICa: MIC of the antibiotic [4]: 16/16 | MICac: MIC of the antibiotic in the combination [4]: 16/16 | MICa: MIC of the antibiotic [5]: 16 | MICac: MIC of the antibiotic in the combination [5]: 2 | MIC [6]: 16 µM | MICac: the MIC for the antibiotic in the combination ([6]; with 2 μM D-11): 0.5 µM | MICac: the MIC for the antibiotic in the combination ([6]; with 4 μM D-11): 0.25 µM | MICa: MIC of the antibiotic [7]: 16 | MICac: MIC of the antibiotic in the combination [7]: 2 | MICa: MIC of the antibiotic [8]: 16 | MICac: MIC of the antibiotic in the combination [8]: 2 | MICa: MIC of the antibiotic [9]: 16 | MICac: MIC of the antibiotic in the combination [9]: 1 | MICa: MIC of the antibiotic [10]: 16 | MICac: MIC of the antibiotic in the combination [10]: 1 | MICa: MIC of the antibiotic [11]: 16 | MICac: MIC of the antibiotic in the combination [11]: 2 | MIC ([12]; Pseudomonas aeruginosa, NR31040, 18 h, read-out: MICa: MIC of the antibiotic): 16 µM | MICac: MIC of the antibiotic in the combination [12, 15]: 0.5 | MIC [14, 16]: 32 µM | MIC [14, 17]: 8 µM | MIC [14, 18]: 16 µM | MIC [14, 19]: 16 µM | MIC [14, 20]: 16 µM | MIC [14, 21]: 16 µM | MIC [14, 22]: 16 µM | MIC [14, 23]: 16 µM | MIC [14, 24]: 16 µM
SMILES: CN(C)c1ccc(O)c2c1C[C@H]1C[C@H]3[C@H](N(C)C)C(O)=C(C(N)=O)C(=O)[C@@]3(O)C(O)=C1C2=O [Minocycline]
FICI [1]: 0.313 | FICI [2]: 0.094 | FICI [3]: 0.313 | FICI [4]: 1.063 | FICI [5]: 0.156 | FICI ([6]; antibiotic + 2 μM D-11): 0.094 | FICI ([6]; antibiotic + 4 μM D-11): 0.141 | FICI [7]: 0.156 | FICI [8]: 0.156 | FICI [9]: 0.188 | FICI [10]: 0.125 | FICI [11]: 0.188 | FICI ([12]; strain NR-31040): 0.063 | FICI [13]: 0.094

MICa: MIC of the antibiotic [3]: 16 | MICac: MIC of the antibiotic in the combination [3]: 8 | MICa: MIC of the antibiotic [4]: 16 | MICac: MIC of the antibiotic in the combination [4]: 8 | MICa: MIC of the antibiotic [5]: 32 | MICac: MIC of the antibiotic in the combination [5]: 4 | MIC [6]: 8 µM | MICac: the MIC for the antibiotic in the combination ([6]; with 2 μM D-11): 1 µM | MICac: the MIC for the antibiotic in the combination ([6]; with 4 μM D-11): 0.25 µM | MICa: MIC of the antibiotic [7]: 16 | MICac: MIC of the antibiotic in the combination [7]: 1 | MICa: MIC of the antibiotic [8]: 16 | MICac: MIC of the antibiotic in the combination [8]: 8 | MICa: MIC of the antibiotic [9]: 8 | MICac: MIC of the antibiotic in the combination [9]: 4 | MICa: MIC of the antibiotic [10]: 8 | MICac: MIC of the antibiotic in the combination [10]: 4 | MICa: MIC of the antibiotic [11]: 64 | MICac: MIC of the antibiotic in the combination [11]: 8 | MICa: MIC of the antibiotic ([12]; strain NR-31040, antibiotic alone, unit not given): 4 | MICac: MIC of the antibiotic in the combination [12, 15]: 1 | MIC [14, 16]: 32 µM | MIC [14, 17]: 4 µM | MIC [14, 18]: 16 µM | MIC [14, 19]: 32 µM | MIC [14, 20]: 16 µM | MIC [14, 21]: 16 µM | MIC [14, 22]: 16 µM | MIC [14, 23]: 4 µM | MIC [14, 24]: 64 µM
SMILES: C[C@H]1[C@H](NC(=O)/C(=N\OC(C)(C)C(=O)O)c2csc(N)n2)C(=O)N1S(=O)(=O)O [Aztreonam]
FICI [1]: 1.063 | FICI [2]: 0.094 | FICI [3]: 0.563 | FICI [4]: 0.563 | FICI [5]: 0.156 | FICI ([6]; antibiotic + 2 μM D-11): 0.188 | FICI ([6]; antibiotic + 4 μM D-11): 0.156 | FICI [7]: 0.094 | FICI [8]: 0.531 | FICI [9]: 0.625 | FICI [10]: 0.563 | FICI [11]: 0.188 | FICI ([12]; strain NR-31040): 0.281 | FICI [13]: 0.531
